# From the supplement of paper PMC10307832
# Experiments:
# Test in all cases: relative viability (nuclei count vs DMSO), 5 days (fraction); higher = more cells survive
# Crenolanib = compound: CC1(COc2ccc3c(c2)ncn3-c2ccc3cccc(N4CCC(N)CC4)c3n2)COC1 [Crenolanib]
# In short: (§1)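 Only plates meeting two conditions passed: control CV below 25% and at least one doubling. Lung cancer cell lines, kept overnight at 37 °C in 1536-well plates, were pinned with five library-drug doses (not always all listed) √10 apart on vehicle-anchored plates and grown 5 days without medium change. A one-step fix, permeabilisation and Hoechst stain preceded 4× imaging and MetaXpress nuclear counting. Viability equals treated-well nuclei divided by vehicle-well nuclei, as the median over plates.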
# Tivantinib = compound: O=C1NC(=O)[C@@H](c2cn3c4c(cccc24)CCC3)[C@@H]1c1c[nH]c2ccccc12 [Tivantinib]
# In short: as §1
# Crenolanib + OSI-027 = compound: CC1(COc2ccc3c(c2)ncn3-c2ccc3cccc(N4CCC(N)CC4)c3n2)COC1 [Crenolanib] + COc1cccc2cc(-c3nc([C@H]4CC[C@H](C(=O)O)CC4)n4ncnc(N)c34)[nH]c12 [OSI-027] (partner 0.5 µM)
# In short: (§2)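 Lung cancer cell lines in 1536-well plates were dosed by pin tool the day after seeding, either with one drug alone or with a fixed anchor-drug dose plus five library-drug doses (not always all listed) in √10 steps. After 5 days, cells were fixed and their nuclei stained in one step (final 0.05% Triton X-100, 1% formaldehyde, 1 ug/ml Hoechst), then counted on 4× images. Relative viability is the nuclei count in treated wells divided by that in vehicle wells. Values are medians of duplicate plates.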
# Tivantinib + Pemetrexed = compound: O=C1NC(=O)[C@@H](c2cn3c4c(cccc24)CCC3)[C@@H]1c1c[nH]c2ccccc12 [Tivantinib] + Nc1nc2[nH]cc(CCc3ccc(C(=O)N[C@@H](CCC(=O)O)C(=O)O)cc3)c2c(=O)[nH]1 [Pemetrexed] (partner 0.2 µM)
# In short: as §2
Cell Line,relative viability (Crenolanib; 0.01 µM),relative viability (Crenolanib; 0.03162 µM),relative viability (Crenolanib; 0.1 µM),relative viability (Crenolanib; 0.3162 µM),relative viability (Crenolanib; 1 µM),relative viability (Tivantinib; 0.01 µM),relative viability (Tivantinib; 0.03162 µM),relative viability (Tivantinib; 0.1 µM),relative viability (Tivantinib; 0.3162 µM),relative viability (Crenolanib + OSI-027; first compound 0.01 µM),relative viability (Crenolanib + OSI-027; first compound 0.03162 µM),relative viability (Crenolanib + OSI-027; first compound 0.1 µM),relative viability (Crenolanib + OSI-027; first compound 0.3162 µM),relative viability (Crenolanib + OSI-027; first compound 1 µM),relative viability (Tivantinib + Pemetrexed; first compound 0.01 µM),relative viability (Tivantinib + Pemetrexed; first compound 0.03162 µM),relative viability (Tivantinib + Pemetrexed; first compound 0.1 µM),relative viability (Tivantinib + Pemetrexed; first compound 0.3162 µM)
NCI-H520,0.93,0.999,1.05,0.908,1.05,1.14,0.968,0.867,0.964,0.245,0.284,0.311,0.306,0.318,0.695,0.716,0.631,0.652
NCI-H522,0.938,0.881,1.03,0.869,0.95,0.943,0.71,0.839,0.741,0.936,0.708,0.728,0.655,0.72,1.01,1.02,0.997,0.476
NCI-H596,0.912,1.04,0.948,0.946,0.972,1.08,0.826,0.92,1.01,0.866,0.84,0.696,0.703,0.731,0.503,0.406,0.453,0.426
NCI-H647,0.983,0.915,0.973,1,0.929,1.06,0.992,0.881,0.946,0.588,0.623,0.79,0.709,0.705,0.17,0.192,0.18,0.184
NCI-H650,0.999,0.798,0.963,0.868,0.887,0.98,0.671,0.896,0.943,0.564,0.534,0.52,0.492,0.348,1.19,0.842,0.839,0.909
NCI-H661,0.962,1,1.02,1.04,1.01,1.07,0.971,0.956,0.811,0.757,0.721,0.744,0.854,0.776,0.922,0.961,0.975,0.844
NCI-H838,1.03,0.975,0.946,0.964,0.749,0.952,0.962,0.798,0.932,0.378,0.358,0.418,0.366,0.283,0.253,0.258,0.239,0.227
NCI-H1355,1.07,0.994,0.955,1.03,0.856,1.01,0.921,0.973,1.01,0.491,0.382,0.409,0.417,0.35,1.03,1.01,1,1.03
NCI-H1395,0.983,0.778,0.975,0.795,0.853,1.07,1.08,0.907,0.924,0.749,0.626,0.666,0.605,0.6,1.03,0.843,0.975,0.782
NCI-H1437,0.983,1,0.977,1.04,1.02,0.993,0.984,0.908,0.989,0.902,0.862,0.936,0.869,0.855,0.336,0.319,0.315,0.298
NCI-H1563,1.02,0.877,1,0.952,0.928,1.03,0.988,0.841,0.822,0.768,0.807,0.764,0.752,0.748,0.558,0.703,0.715,0.624
NCI-H1648,0.878,0.605,0.871,0.865,1.07,0.818,0.863,0.984,0.323,0.245,0.271,0.247,0.26,0.251,–,0.67,0.722,0.486
NCI-H1650,0.927,0.955,1.03,0.867,0.876,0.956,0.813,0.829,0.849,0.666,0.696,0.691,0.667,0.46,0.417,0.4,0.471,0.315
NCI-H1651,0.952,0.928,0.958,0.989,0.932,1.02,0.938,0.874,0.971,0.77,0.668,0.715,0.674,0.702,0.553,0.548,0.572,0.58
NCI-H1666,1.05,0.974,0.951,1.04,0.965,1.01,0.952,0.977,0.83,0.85,0.933,0.834,0.906,0.85,0.841,0.867,0.853,0.673
NCI-H1734,0.947,1.02,0.988,1.02,0.916,0.946,0.878,1.08,1.01,0.706,0.563,0.561,0.822,0.566,0.43,0.352,0.417,0.432
NCI-H1755,0.965,1.03,0.989,1.03,0.959,1.05,0.991,0.956,1.09,0.701,0.797,0.696,0.708,0.653,0.475,0.381,0.358,0.439
NCI-H1792,1.15,0.777,0.82,0.858,0.784,0.849,0.842,0.935,1.08,0.756,0.82,0.691,0.723,0.647,0.965,–,0.81,0.725

Cell Line,relative viability (Crenolanib; 0.01 µM),relative viability (Crenolanib; 0.03162 µM),relative viability (Crenolanib; 0.1 µM),relative viability (Crenolanib; 0.3162 µM),relative viability (Crenolanib; 1 µM),relative viability (Tivantinib; 0.01 µM),relative viability (Tivantinib; 0.03162 µM),relative viability (Tivantinib; 0.1 µM),relative viability (Tivantinib; 0.3162 µM),relative viability (Crenolanib + OSI-027; first compound 0.01 µM),relative viability (Crenolanib + OSI-027; first compound 0.03162 µM),relative viability (Crenolanib + OSI-027; first compound 0.1 µM),relative viability (Crenolanib + OSI-027; first compound 0.3162 µM),relative viability (Crenolanib + OSI-027; first compound 1 µM),relative viability (Tivantinib + Pemetrexed; first compound 0.01 µM),relative viability (Tivantinib + Pemetrexed; first compound 0.03162 µM),relative viability (Tivantinib + Pemetrexed; first compound 0.1 µM),relative viability (Tivantinib + Pemetrexed; first compound 0.3162 µM)
NCI-H1793,0.909,1.02,0.811,1.07,0.88,0.923,0.98,0.837,0.61,0.297,0.335,0.237,0.311,0.268,0.83,0.885,0.832,0.669
NCI-H1915,0.969,1,1.02,1.01,0.779,0.986,0.912,0.977,1.06,0.583,0.646,0.592,0.634,0.417,0.423,0.482,0.495,0.53
NCI-H1944,1.06,0.934,0.964,0.985,0.773,0.922,0.875,0.882,0.717,0.554,0.408,0.416,0.397,0.346,0.603,0.582,0.619,0.546
NCI-H1975,1.1,0.977,0.907,0.887,0.838,1.02,0.956,0.837,0.825,0.717,0.792,0.668,0.682,0.778,0.294,0.287,0.249,0.27
NCI-H1993,0.985,0.889,0.919,1.06,0.925,1,0.897,0.927,0.721,0.527,0.526,0.509,0.567,0.592,0.621,0.53,0.586,0.541
NCI-H2009,1.05,1.02,0.991,0.991,0.89,0.985,0.954,0.967,1.07,0.766,0.636,0.623,0.688,0.581,1.01,1.12,1.04,1.08
NCI-H2023,1.1,1.03,0.952,1.17,0.785,1.02,0.859,0.856,0.824,0.466,0.426,0.378,0.434,0.292,0.278,0.206,0.253,0.191
NCI-H2085,1,1.01,0.948,0.997,0.978,1.03,0.981,0.974,0.905,0.707,0.745,0.706,0.865,0.709,0.975,0.773,0.876,0.75
NCI-H2087,0.938,1.04,0.88,1.05,0.967,1.11,0.936,0.95,1.06,0.664,0.642,0.471,0.546,0.467,0.645,0.78,0.58,0.603
NCI-H2126,1.03,1.05,0.937,0.987,0.928,0.959,0.945,0.989,0.869,0.727,0.691,0.751,0.721,0.644,0.677,0.633,0.706,0.547
NCI-H2170,0.998,1.04,0.943,1.01,1.01,1.01,0.922,0.921,–,0.82,0.744,0.706,0.828,0.669,0.288,0.285,0.244,–
NCI-H2228,0.944,1,0.871,1.11,1.1,1.03,0.893,0.931,0.815,0.6,0.495,0.513,0.687,0.578,0.363,0.319,0.329,0.352
NCI-H2342,1.07,0.844,0.924,1.09,0.968,1.1,0.983,0.934,0.815,0.704,0.599,0.592,0.726,0.594,0.761,0.849,0.771,0.681
NCI-H2347,1.08,0.934,0.758,1.1,1.03,1.16,0.988,1.02,1.07,0.326,–,–,0.482,0.427,0.405,0.454,0.394,0.419
NCI-H2405,0.999,0.885,0.81,1,0.871,1.07,1.01,0.983,1.03,0.672,0.64,–,0.671,0.655,1.12,1.25,1.09,1.05
NCI-H3122,1.02,0.989,0.98,1.1,1.1,0.986,1,0.923,0.877,1.01,0.974,0.962,1.17,1.06,0.179,0.199,0.196,0.162
PC-3 [JPC-3],1.08,1.01,0.93,1.06,0.977,1.04,1.13,1.08,0.697,0.804,0.725,0.803,0.792,0.719,1.24,1.27,1.21,0.72
